Data reported in patent US11357229B2, “Composition, uses and preparation process thereof, as well as method to ensure high corn crop yield” (priority 2011, dated 2022).

Assays:
Assay type in all cases: in vivo, Zea mays
corn [1] = experiment: Ethephon applied to corn at stage V6, Nova Mutum; chlorantraniliprole and cyproconazole+azoxystrobin added in all treatments; settings: for Increased Yield: 100,000 plants/ha vs control at normal density
Experimental: Example 2—Effect of Growth Regulator Ethephon Applied to Corn at the Stage of Development V6
(§1) In the moment of the application, the insecticide chlorantraniliprole (25 g ha^−1 a.i.) and the fungicide cyproconazole+azoxystrobin (24+60 g ha^−1 a.i.) were added in all treatments, including the control.

corn plants = experiment: Growth regulator applied in the late vegetative stage of corn (V6-V9), inventors' finding; settings: application in the late vegetative stage (V6-V9)
Source text: The solution to such problems related to corn crops would be to limit plant growth through the use of plant growth regulators, commonly used in other crops (cotton, wheat), but without any tradition in corn crop in order to provide the cultivation of high densities of corn plants per hectare with a view to achieving considerable increase in the crop's yield potential, as well as to improving pest and disease control in the crop.

corn [2] = experiment: BF 428-5 applied to corn at stage V6, Nova Mutum; chlorantraniliprole and cyproconazole+azoxystrobin added in all treatments; settings: V6; 30 DAA; all treatments (Table 11)
Experimental: Example 6—Effect of Growth Regulator BF 428-5 Applied to Corn at the Stage of Development V6
as §1

corn [3] = experiment: Ethephon applied to corn at stage V8, Nova Mutum; methomyl and pyraclostrobin+epoxyconazole added in all treatments; settings: for Increased Yield: 100,000 plants/ha vs control at normal density
Experimental: Example 1—Effect of Growth Regulator Ethephon Applied to Corn at the Stage of Development V8
(§2) In the moment of the application, the insecticide methomyl (215 g ha^−1 a.i.) and the fungicide pyraclostrobin+epoxyconazole (99.75+37.5 g ha^−1 a.i.) were added in all treatments, including the control.

corn [4] = experiment: Ethephon+cyclanilide applied to corn at stage V8, Nova Mutum; methomyl and pyraclostrobin+epoxyconazole added in all treatments; settings: estimation at 100,000 plants per hectare vs control at normal density of sowing (Table 6)
Experimental: Example 3—Effect of Growth Regulator Ethephon+Cyclanilide Applied to Corn at the Stage of Development V8
as §2

## O=P(O)(O)CCCl [Ethephon, 2-chloroethylphosphonic acid]
Corn [1]; V6
  effects on the corn plant: reduction in shoot length, increased formation of adventitious roots, strengthening of the stem, strengthening of the root system, increased ventilation in the culture, proper development of male and female inflorescences
Corn [1]; V6 (Table 3)
  effect on length and diameter of ears of corn: reduces
  yield reduction / increase: yield reduction was significant for some treatments, and the yield increase was also significant for some treatments
Corn [1]; V6, 30 DAA, all treatments with application of ethephon (Table 3)
  shoot length: less than or equal to 152.5 cm
Corn [1]; V6, 216 g ha^−1 a.i.
  Ear Diameter: 37.9 mm
  Ear Length: 21.4 cm
  Yield: 1906.7 kg/ha
  Population of corn plants 60,000 plants/ha, kg/corn plant: 0.032 kg/corn plant
  Population of corn plants 100,000 plants/ha, kg/corn plant: 0.032 kg/corn plant
  Yield estimates 100,000 plants/ha: 3177.8 kg/ha
  Increased Yield: 10.1%
Corn [1]; V6, 216 g ha^−1 a.i., 30 DAA
  Height (shoot length): 144.3 cm
Corn [1]; V6, 360 g ha^−1 a.i.
  Ear Diameter: 36.7 mm
  Ear Length: 21.1 cm
  Yield: 3553.3 kg/ha
  Population of corn plants 60,000 plants/ha, kg/corn plant: 0.059 kg/corn plant
  Population of corn plants 100,000 plants/ha, kg/corn plant: 0.059 kg/corn plant
  Yield estimates 100,000 plants/ha: 5922.2 kg/ha
  Increased Yield: 105.2%
Corn [1]; V6, 360 g ha^−1 a.i., 30 DAA
  Height (shoot length): 148.5 cm
Corn [1]; V6, 576 g ha^−1 a.i.
  Ear Diameter: 37.7 mm
  Ear Length: 23.3 cm
  Yield: 3540.0 kg/ha
  Population of corn plants 60,000 plants/ha, kg/corn plant: 0.059 kg/corn plant
  Population of corn plants 100,000 plants/ha, kg/corn plant: 0.059 kg/corn plant
  Yield estimates 100,000 plants/ha: 5900.0 kg/ha
  Increased Yield: 104.4%
Corn [1]; V6, 576 g ha^−1 a.i., 30 DAA
  Height (shoot length): 144.9 cm
Corn [1]; V6, estimation at 100,000 plants per hectare vs control at normal density of sowing (Table 4)
  yield increases: more than 10.1%
Corn plants
  root system: stronger root system
Corn [2]
  shoot length: less than or equal to 206.0 cm
Corn [3]; V8
  effects on the corn plant: reduction in shoot length, increased formation of adventitious roots, strengthening of the stem, strengthening of the root system, increased ventilation in the culture, proper development of male and female inflorescences
Corn [3]; V8 (Table 1)
  effect on length and diameter of ears of corn: reduces
  yield reduction: not significant
Corn [3]; V8, 30 DAA, all treatments with application of ethephon (Table 1)
  shoot length: less than or equal to 159.1 cm
Corn [3]; V8, 216 g ha^−1 a.i.
  Ear Diameter: 50.4 mm
  Ear Length: 25.8 cm
  Yield: 4335.6 kg/ha
  Population of corn plants 60,000 plants/ha, kg/corn plant: 0.072 kg/corn plant
  Population of corn plants 100,000 plants/ha, kg/corn plant: 0.072 kg/corn plant
  Yield estimates 100,000 plants/ha: 7226.0 kg/ha
  Increased Yield: 42.4%
Corn [3]; V8, 216 g ha^−1 a.i., 30 DAA
  Height (shoot length): 157.3 cm
Corn [3]; V8, 360 g ha^−1 a.i.
  Ear Diameter: 51.6 mm
  Ear Length: 25.6 cm
  Yield: 4253.3 kg/ha
  Population of corn plants 60,000 plants/ha, kg/corn plant: 0.071 kg/corn plant
  Population of corn plants 100,000 plants/ha, kg/corn plant: 0.071 kg/corn plant
  Yield estimates 100,000 plants/ha: 7088.8 kg/ha
  Increased Yield: 39.7%
Corn [3]; V8, 360 g ha^−1 a.i., 30 DAA
  Height (shoot length): 153.9 cm
Corn [3]; V8, 576 g ha^−1 a.i.
  Ear Diameter: 50.7 mm
  Ear Length: 25.4 cm
  Yield: 4680.0 kg/ha
  Population of corn plants 60,000 plants/ha, kg/corn plant: 0.078 kg/corn plant
  Population of corn plants 100,000 plants/ha, kg/corn plant: 0.078 kg/corn plant
  Yield estimates 100,000 plants/ha: 7800.0 kg/ha
  Increased Yield: 53.7%
Corn [3]; V8, 576 g ha^−1 a.i., 30 DAA
  Height (shoot length): 152.2 cm
Corn [3]; V8, estimation at 100,000 plants per hectare vs control at normal density of sowing (Table 2)
  yield increases: more than 39%
Corn [4]
  yield increases: more than 44.4%
